Results: publication PMC12676312, “Evaluation of Antiviral Activity of N‑Phenyl-2-Phenoxyacetamides Derived from Carvacrol against Mayaro Virus: In Vitro Analyses and In Silico Insights” (ACS Omega, 2025)

Experiments:
Mayaro virus (MAYV) [1] = format: cell-based, Mayaro virus (ATCC VR 66, strain TR 4675); details: Vero cells infected with MAYV (MOI 1) pre-treated 1 h with compound at its CC50-based concentration or 500 μM; 48 h; MTT; infected control 0%, uninfected 100%
Protocol: Vero cells (ATCC CCL-81) were used in all in vitro assays. Cells were cultured in DMEM medium supplemented with 2% fetal bovine serum (FBS), penicillin, and streptomycin, and incubated at a constant temperature of 37 °C under a controlled atmosphere of 5% CO2. Mayaro virus (ATCC VR 66, strain TR 4675) was initially propagated in C6/36 cells cultured in L-15 medium supplemented with 2% FBS, incubated at 28 °C. For viral titer determination, Vero cells (10^5 cells/well) were seeded in 24-well plates and cultured for approximately 24 h to achieve 80% confluence. Subsequently, the culture medium was replaced with 10-fold serial dilutions of the viral aliquot. The plate was maintained under constant agitation for 1 h to facilitate viral adsorption. The medium was then replaced with a semisolid medium (incomplete DMEM and 1% carboxymethylcellulose at a 2:1 ratio). Plates were incubated for 48 h under the aforementioned conditions, and cytopathic effects were monitored. After this period, cells were fixed with 10% formaldehyde and stained with 5% crystal violet solution for plaque counting. The mean number of plaques was used to determine the number of plaque-forming units (PFU), and the viral titer was expressed as PFU/mL.
To evaluate the antiviral potential of the molecules under study, an MTT (3-(4,5-dimethylthiazol-2-yl)-2,5-diphenyltetrazolium bromide) reduction assay was employed. Vero cells were seeded in 96-well plates (10^4 cells/well) and cultured until reaching approximately 80% confluence. […] For compounds with undetermined CC50 values, a concentration of 500 μM (the highest concentration tested in the previous study) was used. After incubation, the viral suspension was removed, DMEM medium was added, and cells were incubated for 48 h at 37 °C under a 5% CO2 atmosphere. Cell viability was determined by absorbance reading at 540 nm after solubilization of formazan crystals with DMSO, with the positive control (Vero cells infected with MAYV) defined as 0% cell viability and the negative control (uninfected Vero cells) defined as 100% cell viability. The compound providing the greatest cellular protection was selected for subsequent assays.

Vero cells = tested on: Vero cells; set-up: method as in previous study of our group; details: ref previous study of our group; cited from earlier work
Mayaro virus (MAYV) [2] = test: Virucidal assay (plaque reduction); format: cell-based, Mayaro virus (ATCC VR 66, strain TR 4675); details: Vero cells
Protocol: To determine the action of the molecule on viral particles, Vero cells cultured in 24-well plates (10^5 cells/well) at 80% confluence were infected with MAYV (100 PFU/well) previously incubated for 1 h with different concentrations of the compound at 37 °C (100 μL/well). Plates were maintained under agitation for 1 h, and afterward, the viral suspension was replaced with 1 mL of semisolid medium (DMEM + 1% carboxymethylcellulose). Plates were incubated for 48 h at 37 °C and 5% CO2 and subsequently fixed with 10% formaldehyde followed by staining with 5% crystal violet solution for plaque counting. DMEM was used as the negative control, and 100 PFU of untreated MAYV was used as the positive control.

Mayaro virus (MAYV) [3] = test: Pretreatment assay (plaque reduction); format: cell-based, Mayaro virus (ATCC VR 66, strain TR 4675); details: Vero cells pretreated 3 h with different concentrations, then infected
Protocol: To determine whether the compound exerts a protective effect on cells prior to viral infection, Vero cells cultured in 24-well plates (10^5 cells/well) were treated for 3 h at 37 °C with 100 μL of the compound at different concentrations, with periodic agitation. Subsequently, the medium was replaced with 100 μL of a solution containing MAYV (100 PFU), and the plates were incubated under constant agitation for 1 h. The viral suspension was then replaced with a semisolid medium (DMEM + 1% carboxymethylcellulose), and the plates were incubated for 48 h at 37 °C under a 5% CO2 atmosphere. Cells were fixed with 10% formaldehyde and stained with 5% crystal violet solution for plaque counting. DMEM was used as the negative control, and 100 PFU of MAYV was used as the positive control (untreated).

Mayaro virus (MAYV) [4] = test: Adsorption inhibition assay (plaque reduction); format: cell-based, Mayaro virus (ATCC VR 66, strain TR 4675); details: 4 °C for 2 h, Vero cells, read-out: Decrease in the number of lysis plaques (adsorption inhibition)
Protocol: To assess whether the compound interferes with the viral adsorption step, 24-well plates (10^5 cells/well) were cooled at 4 °C for 30 min. The culture medium was removed, and cells were washed with cold PBS, followed by the addition of 100 μL of a solution containing MAYV (100 PFU) and different concentrations of the compound. Cells were incubated at 4 °C for 2 h and subsequently washed with cold citrate buffer (0.1 M citric acid and 0.1 M sodium citrate) and PBS. Semisolid medium (DMEM + 1% carboxymethylcellulose) was then added, and plates were incubated at 37 °C for 48 h. Cells were fixed and stained for plaque counting as previously described. DMEM was used as the negative control, and 100 PFU of MAYV served as the positive control (untreated).

Mayaro virus (MAYV) [5] = test: Internalization inhibition assay (plaque reduction); format: cell-based, Mayaro virus (ATCC VR 66, strain TR 4675); details: concentrations between 500 μM and 62.5 μM; Vero cells
Protocol: To evaluate whether the compound affects the internalization step, 24-well plates (10^5 cells/well) were cooled at 4 °C for 30 min. The culture medium was removed, and cells were incubated with MAYV (100 PFU/well) at 4 °C for 2 h. Cells were washed with cold PBS, and 1 mL of DMEM was added followed by incubation for 5 min at 37 °C. Subsequently, different concentrations of the compound were added and incubated for 1 h at 37 °C. Cells were then washed with cold PBS and citrate buffer. Finally, semisolid medium (DMEM + 1% carboxymethylcellulose) was added, and plates were incubated at 37 °C for 48 h. Cells were fixed and stained for plaque counting. DMEM was used as the negative control, and 100 PFU of MAYV was used as the positive control (untreated).

Mayaro virus (MAYV) [6] = test: Post-treatment assay (plaque reduction); format: cell-based, Mayaro virus (ATCC VR 66, strain TR 4675); details: Vero cells treated after MAYV infection, any tested concentration
Protocol: To determine whether the compound acts after viral infection, Vero cells cultured in 24-well plates (10^5 cells/well) were initially infected with 100 μL of MAYV (100 PFU) and incubated under constant agitation for 1 h. The viral suspension was removed and replaced with 100 μL of the compound at different concentrations, followed by incubation for 3 h at 37 °C with periodic agitation. Subsequently, the medium was replaced with semisolid medium (DMEM + 1% carboxymethylcellulose). After 48 h of incubation at 37 °C and 5% CO2, the cells were fixed with 10% formaldehyde and stained with 5% crystal violet for plaque counting. For the negative control, DMEM was used, and for the positive control, 100 PFU of MAYV (untreated).

MAYV = tested on: MAYV; set-up: method as in Langedries et al.; details: Vero cells; ref Langedries et al.; cited from earlier work

| Compound | Antiviral screening (cell viability %) (Mayaro virus (MAYV) [1]) [%] | CC50 (Vero cells) [µM] | other results |
| --- | --- | --- | --- |
| Cc1ccc(C(C)C)cc1OCC(=O)Nc1ccccc1Cl [Compound 1] | 62.5 | 200 | – |
| Cc1ccc(C(C)C)cc1OCC(=O)Nc1ccc(Cl)cc1 [Compound 3] | 0 | 449 | – |
| Cc1ccc(C(C)C)cc1OCC(=O)Nc1ccccc1Br [Compound 4] | 0 | 372 | – |
| Cc1ccc(C(C)C)cc1OCC(=O)Nc1cccc(Br)c1 [Compound 5] | 50.0 | > 500 | – |
| Cc1ccc(C(C)C)cc1OCC(=O)Nc1ccc(Br)cc1 [Compound 6] | 0 | 182 | – |
| Cc1ccc(C(C)C)cc1OCC(=O)Nc1ccccc1F [Compound 7] | 22.83 | > 500 | – |
| Cc1ccc(C(C)C)cc1OCC(=O)Nc1ccc(F)cc1 [Compound 9] | – | > 500 | Reduction in the number of lysis plaques (virucidal activity) (Mayaro virus (MAYV) [2]; 500 μM, MAYV pre-incubated 1 h with compound): approximately 40%; Virucidal activity (number of lysis plaques) (Mayaro virus (MAYV) [2]; concentrations ranging from 500 μM to 31.25 μM): significant reduction in the number of lysis plaques; Number of lysis plaques, pretreatment of cells (Mayaro virus (MAYV) [3]): No reduction in the number of lysis plaques; inhibition at 500 µM (Mayaro virus (MAYV) [4]): ~58%; Reduction in the number of lysis plaques (internalization inhibition) (Mayaro virus (MAYV) [5]): about 50%; Viral activity, post-treatment (Mayaro virus (MAYV) [6]): no reduction in viral activity |
| Cc1ccc(C(C)C)cc1OCC(=O)Nc1ccccc1 [Compound 10] | 0 | > 500 | – |
| NC(=O)c1ncn([C@@H]2O[C@H](CO)[C@@H](O)[C@H]2O)n1 [ribavirin] | – | – | Antiviral activity against MAYV (MAYV): no antiviral activity |
